Measurements published in US20230233569A1 (Revolution Medicines, Inc., priority 2020, published 2023).

What was measured:
Test in all cases: Ras-Raf disruption / FRET / MOA assay (BRAF RBD)
Assay type in all cases: biochemical
[1] = biological target: KRAS G12C (Homo sapiens, UniProt P01116+P62937, G12C); details: Ras-Raf disruption, with Cyclophilin A; read-out: KRAS G12C FRET data IC50
Description: (§1) Disruption of […] Ras-binding Domain (BRAF^RBD) Interaction with K-Ras by Compounds of the Invention (also Called a FRET Assay or an MOA Assay)
(§2) Note—The following protocol describes a procedure for monitoring disruption of K-Ras G12C (GMP-PNP) binding to BRAF^RBD by a compound of the invention. This protocol may also be executed substituting other Ras proteins or nucleotides, such as K-Ras G12D and K-Ras G13D.
(§3) The purpose of this biochemical assay was to measure the ability of test compounds to facilitate ternary complex formation between a nucleotide-loaded K-Ras isoform and Cyclophilin A; the resulting ternary complex disrupts binding to a BRAF^RBD construct, inhibiting K-Ras signaling through a RAF effector. Data is reported as IC50 values.
(§4) In assay buffer containing 25 mM HEPES pH 7.3, 0.002% Tween20, 0.1% BSA, 100 mM NaCl and 5 mM MgCl2, tagless Cyclophilin A, His6-K-Ras-GMPPNP, and GST-BRAF^RBD were combined in a 384-well assay plate at final concentrations of 25 μM, 12.5 nM, and 50 nM, respectively. Compound was present in plate wells as a 10-point 3-fold dilution series starting at a final concentration of 30 μM. After incubation at 25° C. for 3 hours, a mixture of anti-His Eu-W1024 and anti-GST allophycocyanin was then added to assay sample wells at final concentrations of 10 nM and 50 nM, respectively, and the reaction incubated for an additional 1.5 hours. […] Compounds that facilitate disruption of a K-Ras:RAF complex were identified as those eliciting a decrease in the TR-FRET ratio relative to DMSO control wells.
as §3, with “is” for “was”, “Ras” for “K-Ras”, “cyclophilin” for “Cyclophilin”, “effector.” for “effector. Data is reported as IC50 values.”
In assay buffer containing 25 mM HEPES pH 7.3, 0.002% Tween20, 0.1% BSA, 100 mM NaCl and 5 mM MgCl2, tagless Cyclophilin A, His6-K-Ras-GMPPNP (or other Ras variant), and GST-BRAF^RBD are combined in a 384-well assay plate at final concentrations of 25 μM, 12.5 nM and 50 nM, respectively. Compound is present in plate wells as a 10-point 3-fold dilution series starting at a final concentration of 30 μM. After incubation at 25° C. for 3 hours, a mixture of Anti-His Eu-W1024 and anti-GST allophycocyanin is then added to assay sample wells at final concentrations of 10 nM and 50 nM, respectively, and the reaction incubated for an additional 1.5 hours. […] Compounds that facilitate disruption of a Ras:RAF complex are identified as those eliciting a decrease in the TR-FRET ratio relative to DMSO control wells.

[2] = biological target: NRAS G12C (Homo sapiens, UniProt P01111+P62937, G12C); details: NRAS G12C; read-out: NRAS G12C FRET data IC50
NRAS G12C, sequence (P01111 whole entry G12C): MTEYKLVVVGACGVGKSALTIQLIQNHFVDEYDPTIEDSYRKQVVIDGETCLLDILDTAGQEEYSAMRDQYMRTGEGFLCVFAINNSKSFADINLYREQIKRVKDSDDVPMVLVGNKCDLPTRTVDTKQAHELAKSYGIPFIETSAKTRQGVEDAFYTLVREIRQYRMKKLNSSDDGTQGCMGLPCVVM
NRAS G12C, sequence (P62937 whole entry): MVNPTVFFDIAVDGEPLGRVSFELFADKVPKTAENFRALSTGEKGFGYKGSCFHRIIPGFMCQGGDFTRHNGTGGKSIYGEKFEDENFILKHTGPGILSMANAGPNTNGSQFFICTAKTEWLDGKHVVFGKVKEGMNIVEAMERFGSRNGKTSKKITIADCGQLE
Description: as §1, §2, §3, §4

[3] = biological target: KRAS G13C (Homo sapiens, UniProt P01116+P62937, G13C); details: Ras-Raf disruption, with Cyclophilin A; read-out: KRAS G13C FRET data IC50
KRAS G13C, sequence (P01116 1-169 isoform P01116-2 G13C limits assumed): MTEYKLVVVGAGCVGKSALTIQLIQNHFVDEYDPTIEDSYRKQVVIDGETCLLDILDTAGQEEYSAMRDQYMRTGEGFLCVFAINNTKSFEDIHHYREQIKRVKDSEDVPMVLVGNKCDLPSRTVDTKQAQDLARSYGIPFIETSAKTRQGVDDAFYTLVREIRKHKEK
KRAS G13C, sequence (P62937 whole entry): as the sequence (P62937 whole entry) above
Description: as §1, §2, §3, §4

[4] = biological target: KRAS G12S (Homo sapiens, UniProt P01116+P62937, G12S); details: Ras-Raf disruption, with Cyclophilin A; read-out: KRAS G12S FRET data IC50
KRAS G12S, sequence (P01116 1-169 isoform P01116-2 G12S limits assumed): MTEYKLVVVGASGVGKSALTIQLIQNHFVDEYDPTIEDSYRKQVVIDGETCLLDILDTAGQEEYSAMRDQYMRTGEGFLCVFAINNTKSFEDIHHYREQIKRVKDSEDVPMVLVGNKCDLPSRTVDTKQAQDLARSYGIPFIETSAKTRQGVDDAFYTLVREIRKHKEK
KRAS G12S, sequence (P62937 whole entry): as the sequence (P62937 whole entry) above
Description: as §1, §2, §3, §4

[5] = biological target: KRAS G13D (Homo sapiens, UniProt P01116+P62937, G13D); details: Ras-Raf disruption, with Cyclophilin A; read-out: KRAS G13D FRET data IC50
KRAS G13D, sequence (P01116 1-169 isoform P01116-2 G13D limits assumed): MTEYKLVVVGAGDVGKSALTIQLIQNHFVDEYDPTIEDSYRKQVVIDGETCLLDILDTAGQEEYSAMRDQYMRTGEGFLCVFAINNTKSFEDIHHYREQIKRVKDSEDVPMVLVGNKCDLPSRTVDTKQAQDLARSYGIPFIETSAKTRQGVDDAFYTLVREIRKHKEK
KRAS G13D, sequence (P62937 whole entry): as the sequence (P62937 whole entry) above
Description: as §1, §2, §3, §4

[6] = biological target: KRAS WT (Homo sapiens, UniProt P01116+P62937); details: Ras-Raf disruption, with Cyclophilin A; read-out: KRAS WT FRET data IC50
KRAS WT, sequence (P01116 1-169 isoform P01116-2 limits assumed): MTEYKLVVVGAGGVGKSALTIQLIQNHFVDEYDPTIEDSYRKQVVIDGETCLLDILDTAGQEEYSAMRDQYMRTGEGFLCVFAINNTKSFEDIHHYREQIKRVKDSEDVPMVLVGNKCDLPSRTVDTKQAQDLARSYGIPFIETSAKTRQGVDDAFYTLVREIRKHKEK
KRAS WT, sequence (P62937 whole entry): as the sequence (P62937 whole entry) above
Description: as §1, §2, §3, §4

[7] = biological target: KRAS G12V (Homo sapiens, UniProt P01116+P62937, G12V); details: Ras-Raf disruption, with Cyclophilin A; read-out: KRAS G12V FRET data IC50
KRAS G12V, sequence (P01116 1-169 isoform P01116-2 G12V limits assumed): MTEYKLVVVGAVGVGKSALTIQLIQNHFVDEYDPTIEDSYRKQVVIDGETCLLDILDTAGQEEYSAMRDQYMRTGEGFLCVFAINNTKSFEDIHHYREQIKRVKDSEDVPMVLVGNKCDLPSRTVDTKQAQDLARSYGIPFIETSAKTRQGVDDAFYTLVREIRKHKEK
KRAS G12V, sequence (P62937 whole entry): as the sequence (P62937 whole entry) above
Description: as §1, §2, §3, §4

[8] = biological target: KRAS G12D (Homo sapiens, UniProt P01116+P62937, G12D); details: Ras-Raf disruption, with Cyclophilin A; read-out: KRAS G12D FRET data IC50
KRAS G12D, sequence (P01116 1-169 isoform P01116-2 G12D limits assumed): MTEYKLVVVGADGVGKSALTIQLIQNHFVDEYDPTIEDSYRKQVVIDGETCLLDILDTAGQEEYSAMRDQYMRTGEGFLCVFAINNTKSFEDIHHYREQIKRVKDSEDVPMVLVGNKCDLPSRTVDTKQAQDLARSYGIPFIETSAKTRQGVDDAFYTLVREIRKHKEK
KRAS G12D, sequence (P62937 whole entry): as the sequence (P62937 whole entry) above
Description: as §1, §2, §3, §4

KRAS G12C, sequence (P01116 1-169 isoform P01116-2 G12C limits assumed): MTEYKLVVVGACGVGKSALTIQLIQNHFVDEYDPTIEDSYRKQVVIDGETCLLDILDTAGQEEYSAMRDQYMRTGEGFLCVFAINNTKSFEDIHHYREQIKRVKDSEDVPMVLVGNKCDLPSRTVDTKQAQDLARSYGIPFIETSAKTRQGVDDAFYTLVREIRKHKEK
KRAS G12C, sequence (P62937 whole entry, the tested form may be a part): as the sequence (P62937 whole entry) above

Row | Compound | IC50 [1] [nM] | IC50 [2] [nM] | IC50 [3] [nM] | IC50 [4] [nM] | IC50 [5] [nM] | IC50 [6] [nM] | IC50 [7] [nM] | IC50 [8] [nM]
1 | CCn1c(-c2cccnc2[C@H](C)OC)c2c3cc(ccc31)-c1cc(O)cc(c1)C[C@H](NC(=O)[C@H](C(C)C)N(C)C(=O)N1CCN(C(=O)[C@H]3CN3)CC1=O)C(=O)N1CCC[C@H](N1)C(=O)OCC(C)(C)C2 (atropisomer, axis not shown) [Example 183] | < 10 | 10 to 100 | 10 to 100 | 100 to 1000 | 100 to 1000 | 10 to 100 | 100 to 1000 | 1000 to 10000
2 | CCn1c(-c2cccnc2[C@H](C)OC)c2c3cc(ccc31)-c1cc(O)cc(c1)C[C@H](NC(=O)[C@H](C(C)C)N(C)C(=O)[C@]1(F)CCN(C(=O)[C@@H]3CN3)C1)C(=O)N1CCC[C@H](N1)C(=O)OCC(C)(C)C2 (atropisomer, axis not shown) [Example 184] | < 10 | < 10 | 10 to 100 | 100 to 1000 | 100 to 1000 | 100 to 1000 | 100 to 1000 | 100 to 1000
3 | CCn1c(-c2cccnc2[C@H](C)OC)c2c3cc(ccc31)-c1cc(O)cc(c1)C[C@H](NC(=O)[C@H](C(C)C)N(C)C(=O)[C@@]1(F)CCN(C(=O)[C@@H]3CN3)C1)C(=O)N1CCC[C@H](N1)C(=O)OCC(C)(C)C2 (atropisomer, axis not shown) [Example 185] | 10 to 100 | 10 to 100 | 10 to 100 | 100 to 1000 | 100 to 1000 | 100 to 1000 | 100 to 1000 | 100 to 1000
4 | CCn1c(-c2cccnc2[C@H](C)OC)c2c3cc(ccc31)-c1cc(O)cc(c1)C[C@H](NC(=O)[C@H](C(C)C)N(C)C(=O)c1ccc(NC(=O)[C@@H]3CN3)cn1)C(=O)N1CCC[C@H](N1)C(=O)OCC(C)(C)C2 (atropisomer, axis not shown) [Example 187] | 100 to 1000 | 100 to 1000 | 10 to 100 | 100 to 1000 | 100 to 1000 | 100 to 1000 | 100 to 1000 | 100 to 1000
5 | CCn1c(-c2cccnc2[C@H](C)OC)c2c3cc(ccc31)-c1cc(O)cc(c1)C[C@H](NC(=O)[C@H](C(C)C)N(C)C(=O)N1CC(NC(=O)[C@@H]3CN3)C1)C(=O)N1CCC[C@H](N1)C(=O)OCC(C)(C)C2 (atropisomer, axis not shown) [Example 188] | 10 to 100 | 10 to 100 | 10 to 100 | 100 to 1000 | 100 to 1000 | 100 to 1000 | 100 to 1000 | 100 to 1000
6 | CCn1c(-c2cccnc2[C@H](C)OC)c2c3cc(ccc31)-c1cc(O)cc(c1)C[C@H](NC(=O)[C@H](C(C)C)N(C)C(=O)N1CC(NC(=O)[C@H]3CN3)C1)C(=O)N1CCC[C@H](N1)C(=O)OCC(C)(C)C2 (atropisomer, axis not shown) [Example 189] | 10 to 100 | 10 to 100 | 10 to 100 | 100 to 1000 | 100 to 1000 | 10 to 100 | 10 to 100 | 100 to 1000
7 | CCn1c(-c2cccnc2[C@H](C)OC)c2c3cc(ccc31)-c1cc(O)cc(c1)C[C@H](NC(=O)[C@H](C(C)C)N(C)C(=O)N1CCCN(C(=O)[C@H]3CN3)CC1)C(=O)N1CCC[C@H](N1)C(=O)OCC(C)(C)C2 (atropisomer, axis not shown) [Example 190] | < 10 | 10 to 100 | 10 to 100 | 10 to 100 | 100 to 1000 | 10 to 100 | 10 to 100 | 100 to 1000
8 | CCn1c(-c2cccnc2[C@H](C)OC)c2c3cc(ccc31)-c1cc(O)cc(c1)C[C@H](NC(=O)[C@H](C(C)C)N(C)C(=O)[C@H]1CCN(C(=O)[C@@H]3N[C@@H]3C3CC3)C1)C(=O)N1CCC[C@H](N1)C(=O)OCC(C)(C)C2 (atropisomer, axis not shown) [Example 198] | < 10 | < 10 | 10 to 100 | 10 to 100 | 10 to 100 | 10 to 100 | 100 to 1000 | 10 to 100
